Laboratory results reported in ChEMBL document CHEMBL6083269, “Design, synthesis, in vitro and in vivo trypanosomaticidal efficacy of novel 5-nitroindolylazines” (Eur J Med Chem, 2024).

Assays:
[1] = Selectivity index, ratio of IC50 for african green monkey Vero cells to IC50 for static antileishmanial activity against Leishmania donovani 9515 (MHOM/IN/95/9151) amastigote; type: toxicity, cell-based; settings: read-out: Ratio IC50
[2] = Cytotoxicity against MDBK cells incubated for 72 hrs by CCK8 assay; type: toxicity, cell-based, Bos taurus; settings: cattle; for CC50 at 72 h: MDBK cells; for CC50: mdbk, 72 h
[3] = Selectivity index, ratio of CC50 for MDBK to IC50 for Trypanosoma congolense IL3000; type: toxicity, cell-based; settings: cattle, MDBK cells; read-out: Ratio CC50/IC50
Trypanosoma equiperdum = assay: Trypanocidal activity against Trypanosoma equiperdum IVM-t1 incubated for 72 hrs by CellTiter-Glo reagent based […] analysis; type: functional, organism-based; settings: IVM-t1, 72 h
[4] = Cytotoxicity against human […]-differentiated THP-1 cells incubated for 72 hrs by resazurin dye based assay; type: toxicity, cell-based
[5] = Selectivity index, ratio of IC50 for african green monkey Vero cells to IC50 for Leishmania donovani 9515 (MHOM/IN/95/9151) promastigote; type: toxicity, cell-based; settings: read-out: Ratio IC50
[6] = Selectivity index, ratio of CC50 for MDBK to IC50 for Trypanosoma brucei brucei GUTat3.1; type: toxicity, cell-based; settings: cattle, MDBK cells; read-out: Ratio CC50/IC50
Trypanosoma congolense = assay: Trypanocidal activity against Trypanosoma congolense IL3000 incubated for 72 hrs by CellTiter-Glo reagent based […] analysis; type: functional, organism-based; settings: IL3000, 72 h
Trypanosoma evansi = assay: Trypanocidal activity against Trypanosoma evansi Tansui incubated for 72 hrs by CellTiter-Glo reagent based […] analysis; type: functional, organism-based
[7] = Selectivity index, ratio of CC50 for MDBK to IC50 for Trypanosoma evansi Tansui; type: toxicity, cell-based; settings: cattle, MDBK cells; read-out: Ratio CC50/IC50
Leishmania donovani [8] = assay: Antileishmanial activity against Leishmania donovani 9515 (MHOM/IN/95/9151) amastigote infected in THP-1 cells assessed as inhibition of parasite growth incubated for 72 hrs by resazurin dye based plate reader assay; type: functional, organism-based; settings: THP-1, 72 h
[9] = Selectivity index, ratio of CC50 for MDBK to IC50 for Trypanosoma equiperdum IVM-t1; type: toxicity, cell-based; settings: cattle, MDBK cells; read-out: Ratio CC50/IC50
[10] = Selectivity index, ratio of IC50 for human THP-1 cells to IC50 for Leishmania donovani 9515 (MHOM/IN/95/9151) promastigote; type: toxicity, cell-based; settings: read-out: Ratio IC50
[11] = Selectivity index, ratio of CC50 for MDBK to IC50 for Trypanosoma brucei gambiense IL1922; type: toxicity, cell-based; settings: cattle, MDBK cells; read-out: Ratio CC50/IC50
[12] = Selectivity index, ratio of IC50 for human THP-1 cells to IC50 for leishmanicidal activity against Leishmania donovani 9515 (MHOM/IN/95/9151) amastigote; type: toxicity, cell-based; settings: read-out: Ratio IC50
[13] = Selectivity index, ratio of CC50 for MDBK to IC50 for Trypanosoma brucei rhodesiense IL1501; type: toxicity, cell-based; settings: cattle, MDBK cells; read-out: Ratio CC50/IC50
[14] = Cytotoxicity against green monkey Vero cells incubated for 48 hrs by resazurin dye based assay; type: toxicity, cell-based; settings: African green monkey (Chlorocebus sabaeus)
Leishmania donovani [15] = assay: Leishmanicidal activity against Leishmania donovani 9515 (MHOM/IN/95/9151) amastigote infected in THP-1 cells incubated for 72 hrs by resazurin dye based plate reader assay; type: functional, organism-based; settings: THP-1, 72 h
Leishmania donovani [16] = assay: Antileishmanial activity against Leishmania donovani 9515 (MHOM/IN/95/9151) promastigote incubated for 48 hrs by resazurin dye based plate reader assay; type: functional, organism-based
[17] = system: Trypanosoma brucei brucei; assay: Trypanocidal activity against Trypanosoma brucei brucei GUTat3.1 incubated for 72 hrs by CellTiter-Glo reagent based […] analysis; type: functional, organism-based; settings: GUTat3.1, 72 h
[18] = system: Trypanosoma brucei gambiense; assay: Trypanocidal activity against Trypanosoma brucei gambiense IL1922 incubated for 72 hrs by CellTiter-Glo reagent based […] analysis; type: functional, organism-based; settings: IL1922, 72 h
[19] = Selectivity index, ratio of IC50 for african green monkey Vero cells to IC50 for leishmanicidal activity against Leishmania donovani 9515 (MHOM/IN/95/9151) amastigote; type: toxicity, cell-based; settings: read-out: Ratio IC50
[20] = system: Trypanosoma brucei rhodesiense; assay: Trypanocidal activity against Trypanosoma brucei rhodesiense IL1501 incubated for 72 hrs by CellTiter-Glo reagent based […] analysis; type: functional, organism-based; settings: IL1501, 72 h
[21] = Selectivity index, ratio of IC50 for human THP-1 cells to IC50 for static antileishmanial activity against Leishmania donovani 9515 (MHOM/IN/95/9151) amastigote; type: toxicity, cell-based; settings: read-out: Ratio IC50

SMILES | selectivity ratio [1] | CC50 at 72 h [2] [µM] | selectivity ratio [3] | IC50 (Trypanosoma equiperdum) [µM] | IC50 at 72 h [4] [µM] | selectivity ratio [5] | selectivity ratio [6] | IC50 (Trypanosoma congolense) [µM] | IC50 (Trypanosoma evansi) [µM] | IC50 (Leishmania donovani [8]) [µM] | selectivity ratio [9] | selectivity ratio [11] | selectivity ratio [13] | IC50 at 48 h [14] [µM] | IC50 (Leishmania donovani [15]) [µM] | IC50 (Leishmania donovani [16]) [µM] | IC50 [17] [µM] | IC50 [18] [µM] | IC50 [20] [µM] | selectivity ratio [21] | further results
C#CCn1cc(/C=N\N=C\c2cccs2)c2cc([N+](=O)[O-])ccc21 | 12 | > 297 | > 75.4 | 18.4 | 16.6 | 2 | > 13.9 | 3.94 | 18.5 | 0.89 | > 16.2 | 20.2 | 18.3 | 10.8 | 0.67 | 7.02 | 21.4 | 14.7 | 16.3 | 16 | selectivity ratio [7]: > 16.1; selectivity ratio [10]: 2; selectivity ratio [12]: 25; selectivity ratio [19]: 16
C#CCn1cc(/C=N/N=C\C=C(C)C)c2cc([N+](=O)[O-])ccc21 | 152 | – | 2.41 | 27 | 92.6 | 8 | 1.82 | 28.3 | 39.6 | 0.53 | 2.53 | 2.04 | 1.96 | 80.3 | 1.03 | 10 | 37.4 | 33.4 | 34.7 | 175 | CC50 [2]: > 325 µM; selectivity ratio [7]: 1.72; selectivity ratio [10]: 9; selectivity ratio [12]: 90; selectivity ratio [19]: 78
C#CCn1cc(/C=N\N=C\C(C)=Cc2ccccc2)c2cc([N+](=O)[O-])ccc21 | – | – | 0.94 | 29 | > 100 | 1 | 0.34 | > 9.79 | 22.7 | > 10 | 0.32 | 0.34 | 0.93 | 9.59 | > 10 | 7.88 | 26.7 | 27.2 | 9.86 | – | CC50 [2]: 226 µM; selectivity ratio [7]: 0.41; selectivity ratio [10]: 13
C#CCn1cc(/C=N\N=C/CC)c2cc([N+](=O)[O-])ccc21 | – | > 354 | – | 56.1 | > 100 | – | > 4.49 | > 88.6 | 55.4 | > 10 | > 6.3 | > 6.86 | > 4.72 | > 100 | > 10 | > 10 | 78.8 | 51.6 | 75.1 | – | selectivity ratio [7]: > 6.39
C#CCn1cc(/C=N\N=C/CCC)c2cc([N+](=O)[O-])ccc21 | – | > 338 | – | > 84.4 | 43.9 | – | – | > 84.4 | > 84.4 | > 10 | – | – | > 6.96 | > 100 | > 10 | > 10 | > 84.4 | > 84.4 | 48.5 | – | –
C#CCn1cc(/C=N\N=C\c2nccn2C)c2cc([N+](=O)[O-])ccc21 | – | > 302 | > 23.5 | > 75.5 | 29.7 | – | – | 12.8 | > 75.5 | > 10 | – | – | – | 54.7 | > 10 | > 10 | > 75.5 | > 75.5 | > 75.5 | – | –
C#CCn1cc(/C=N\N=C\C2CCCCC2)c2cc([N+](=O)[O-])ccc21 | > 35 | > 297 | – | 21.8 | 52.9 | – | > 16 | > 74.3 | > 74.3 | 2.85 | > 13.7 | > 18.4 | > 15.3 | > 100 | > 10 | > 10 | 18.6 | 16.1 | 19.4 | 19 | –
C#CCn1cc(/C=N\N=C\c2ccc([N+](=O)[O-])cc2)c2cc([N+](=O)[O-])ccc21 | 3 | > 68.2 | > 30.1 | > 66.7 | 25.7 | – | – | 8.84 | > 66.7 | 9.75 | – | – | – | 27.5 | 3.91 | > 10 | > 66.7 | > 66.7 | > 66.7 | 3 | selectivity ratio [12]: 7; selectivity ratio [19]: 7
C#CCn1cc(\C=N/N=C/C(C)=C\C)c2cc([N+](=O)[O-])ccc21 | 226 | > 281 | – | > 81.2 | > 100 | 8 | – | > 81.2 | > 81.2 | 0.32 | – | – | – | 84.2 | 1.7 | 10.5 | > 81.2 | > 81.2 | > 81.2 | 313 | selectivity ratio [10]: 10; selectivity ratio [12]: > 59; selectivity ratio [19]: 50
